{
  "source": "patent US7138361B2",
  "about": "“Herbicidal heterocycles” (E. I. du Pont de Nemours and Company, priority 2000, dated 2006)",
  "type_in_all_cases": "in vivo",
  "key": {"corn (Zea mays) [1]": {"tested_on": "corn (Zea mays)", "assay": "Test B preemergence", "source_text": "(§1) Seeds selected from barnyardgrass (Echinochloa crus-galli), Surinam grass (Brachiaria decumbens), cocklebur (Xanthium strumarium), corn (Zea mays), crabgrass (Digitaria sanguinalis), giant foxtail (Setaria faberii), lambsquarters (Chenopodium album), morning glory (Ipomoea hederacea), pigweed (Amaranthus retroflexus), rice (Oryza saliva) and velvetleaf (Abutilon theophrasti) were planted and treated preemergence with test chemicals formulated in a non-phytotoxic solvent mixture which included a surfactant.\n(§2) At the same time, plants selected from these crop and weed species and also blackgrass (Alopecurus myosuroides), wheat (Triticum aestivum) and wild oat (Avena fatua) were treated with postemergence applications of test chemicals formulated in the same manner. Plants ranged in height from 2 to 18 cm (1- to 4-leaf stage) for postemergence treatments. Plant species in the flooded paddy test consisted of rice (Oryza saliva), smallflower flatsedge (Cyperus difformis), duck salad (Heteranthera limosa) and barnyardgrass (Echinochloa crus-galli) grown to the 2-leaf stage for testing. Treated plants and controls were maintained in a greenhouse for 13 to 15 days, after which time all species were compared to controls and visually evaluated. Plant response ratings, summarized in Table B, are based on a scale of 0 to 100 where 0 is no effect and 100 is complete control. A dash (-) response means no test result."}, "[2]": {"tested_on": "lambsquarters (Chenopodium album)", "assay": "Test B preemergence", "source_text": "as §1, §2"}, "[3]": {"tested_on": "morning glory (Ipomoea hederacea)", "assay": "Test B preemergence", "source_text": "as §1, §2"}, "[4]": {"tested_on": "giant foxtail (Setaria faberii)", "assay": "Test B preemergence", "source_text": "as §1, §2"}, "[5]": {"tested_on": "Surinam grass (Brachiaria decumbens)", "assay": "Test B preemergence", "source_text": "as §1, §2"}, "[6]": {"tested_on": "velvetleaf (Abutilon theophrasti)", "assay": "Test B preemergence", "source_text": "as §1, §2"}, "[7]": {"tested_on": "cocklebur (Xanthium strumarium)", "assay": "Test B preemergence", "source_text": "as §1, §2"}, "rice (Oryza saliva) [8]": {"tested_on": "rice (Oryza saliva)", "assay": "Test B preemergence", "source_text": "as §1, §2"}, "[9]": {"tested_on": "crabgrass (Digitaria sanguinalis)", "assay": "Test B preemergence", "source_text": "as §1, §2"}, "[10]": {"tested_on": "pigweed (Amaranthus retroflexus)", "assay": "Test B preemergence", "source_text": "as §1, §2"}, "[11]": {"tested_on": "barnyardgrass (Echinochloa crus-galli)", "assay": "Test B preemergence", "source_text": "as §1, §2"}, "[12]": {"tested_on": "duck salad (Heteranthera limosa)", "assay": "Test C flooded paddy test", "conditions": "for Ducksalad plant response rating: Flooded Paddy, scale 0 to 100, 0 no effect, 100 complete control; for Plant response rating, Ducksalad: flooded paddy test, scale 0 to 100 (0 no effect, 100 complete control)", "procedure": "(§3) At the same time, plants selected from these crop and weed species and also winter barley (Hordeum vulgare), blackgrass (Alopecurus myosuroides), canary grass (Phalaris minor), chickweed (Stellaria media), downy brome (Bromus tectorum), green foxtail (Setaria viridis), Italian ryegrass (Lolium multiflorum), wheat (Triticum aestivum), wild oat (Avena fatua) and windgrass (Apera spica-venti) were treated with postemergence applications of some of the test chemicals formulated in the same manner. Plants ranged in height from 2 to 18 cm (1- to 4-leaf stage) for postemergence treatments. Plant species in the flooded paddy test consisted of rice (Oryza saliva), smallflower flatsedge (Cyperus difformis), duck salad (Heteranthera limosa) and barnyardgrass (Echinochloa crus-galli) grown to the 2-leaf stage for testing. Treated plants and controls were maintained in a greenhouse for 12 to 14 days, after which time all species were compared to controls and visually evaluated. Plant response ratings, summarized in Table C, are based on a scale of 0 to 100 where 0 is no effect and 100 is complete control. A dash (-) response means no test result."}, "[13]": {"tested_on": "smallflower flatsedge (Cyperus difformis)", "assay": "Test C flooded paddy test", "conditions": "for Flatsedge plant response rating: Flooded Paddy, scale 0 to 100, 0 no effect, 100 complete control; for Plant response rating, Flatsedge: flooded paddy test, scale 0 to 100 (0 no effect, 100 complete control)", "procedure": "as §3"}, "rice (Oryza saliva) [14]": {"tested_on": "rice (Oryza saliva)", "assay": "Test C flooded paddy test", "conditions": "for Rice plant response rating: Flooded Paddy, scale 0 to 100, 0 no effect, 100 complete control", "procedure": "as §3"}, "[15]": {"tested_on": "barnyardgrass (Echinochloa crus-galli)", "assay": "Test C flooded paddy test", "conditions": "for Barnyardgrass plant response rating: Flooded Paddy, scale 0 to 100, 0 no effect, 100 complete control; for Plant response rating, Barnyardgrass: flooded paddy test, scale 0 to 100 (0 no effect, 100 complete control)", "procedure": "as §3"}, "corn (Zea mays) [16]": {"tested_on": "corn (Zea mays)", "assay": "Test B postemergence", "conditions": "13 to 15 days", "source_text": "as §1, §2"}, "[17]": {"tested_on": "lambsquarters (Chenopodium album)", "assay": "Test B postemergence", "conditions": "Rate 500 g/ha, scale 0 to 100, 0 is no effect, 100 is complete control, 13 to 15 days", "source_text": "as §1, §2"}, "[18]": {"tested_on": "morning glory (Ipomoea hederacea)", "assay": "Test B postemergence", "conditions": "Rate 500 g/ha, scale 0 to 100, 0 is no effect, 100 is complete control, 13 to 15 days", "source_text": "as §1, §2"}, "[19]": {"tested_on": "giant foxtail (Setaria faberii)", "assay": "Test B postemergence", "conditions": "13 to 15 days", "source_text": "as §1, §2"}, "[20]": {"tested_on": "Surinam grass (Brachiaria decumbens)", "assay": "Test B postemergence", "conditions": "13 to 15 days", "source_text": "as §1, §2"}, "[21]": {"tested_on": "wheat (Triticum aestivum)", "assay": "Test B postemergence", "conditions": "Rate 500 g/ha, scale 0 to 100, 0 is no effect, 100 is complete control, 13 to 15 days", "source_text": "as §1, §2"}, "wild oat (Avena fatua)": {"tested_on": "wild oat (Avena fatua)", "assay": "Test B postemergence", "conditions": "Rate 500 g/ha, scale 0 to 100, 0 is no effect, 100 is complete control, 13 to 15 days", "source_text": "as §1, §2"}, "[22]": {"tested_on": "velvetleaf (Abutilon theophrasti)", "assay": "Test B postemergence", "conditions": "Rate 500 g/ha, scale 0 to 100, 0 is no effect, 100 is complete control, 13 to 15 days", "source_text": "as §1, §2"}, "[23]": {"tested_on": "crabgrass (Digitaria sanguinalis)", "assay": "Test B postemergence", "conditions": "13 to 15 days", "source_text": "as §1, §2"}, "[24]": {"tested_on": "pigweed (Amaranthus retroflexus)", "assay": "Test B postemergence", "conditions": "Rate 500 g/ha, scale 0 to 100, 0 is no effect, 100 is complete control, 13 to 15 days", "source_text": "as §1, §2"}, "[25]": {"tested_on": "blackgrass (Alopecurus myosuroides)", "assay": "Test B postemergence", "conditions": "13 to 15 days", "source_text": "as §1, §2"}, "[26]": {"tested_on": "barnyardgrass (Echinochloa crus-galli)", "assay": "Test B postemergence", "conditions": "13 to 15 days", "source_text": "as §1, §2"}, "[27]": {"conditions": "Preemergence, Rate 500 g/ha, scale 0 to 100, 0 no effect, 100 complete control"}, "[28]": {"conditions": "preemergence, Rate 125 g/ha, scale of 0 to 100 where 0 is no effect and 100 is complete control, 13 to 15 days"}, "[29]": {"conditions": "Rate 125 g/ha, scale 0 (no effect) to 100 (complete control)"}, "[30]": {"conditions": "Rate 500 g/ha, scale 0 to 100, 0 is no effect, 100 is complete control"}},
  "data": [
    {"smiles": "CCCCC(C)c1ccn(C2SCN(c3cccc(C(F)(F)F)c3)C2=O)n1", "note": "(stereo not shown) [Compound 103]", "values": [
      {"measurement": "Plant response rating, Corn", "setting": "corn (Zea mays) [1]; [27]", "value": 0},
      {"measurement": "Plant response rating, Corn", "setting": "corn (Zea mays) [1]; [28]", "value": 0},
      {"measurement": "Plant response rating, Lambsquarters", "setting": "[2]; [27]", "value": 100},
      {"measurement": "Plant response rating, Lambsquarters", "setting": "[2]; [28]", "value": 100},
      {"measurement": "Plant response rating, Morningglory", "setting": "[3]; [27]", "value": 0},
      {"measurement": "Plant response rating, Morningglory", "setting": "[3]; [28]", "value": 0},
      {"measurement": "Plant response rating, Foxtail, Giant", "setting": "[4]; [27]", "value": 0},
      {"measurement": "Plant response rating, Foxtail, Giant", "setting": "[4]; [28]", "value": 0},
      {"measurement": "Plant response rating, Surinam grass", "setting": "[5]; [27]", "value": 0},
      {"measurement": "Plant response rating, Surinam grass", "setting": "[5]; [28]", "value": 0},
      {"measurement": "Plant response rating, Velvetleaf", "setting": "[6]; [27]", "value": 0},
      {"measurement": "Plant response rating, Velvetleaf", "setting": "[6]; [28]", "value": 0},
      {"measurement": "Plant response rating, Cocklebur", "setting": "[7]; [27]", "value": 0},
      {"measurement": "Plant response rating, Cocklebur", "setting": "[7]; [28]", "value": 0},
      {"measurement": "Plant response rating, Rice", "setting": "rice (Oryza saliva) [8]; [27]", "value": 0},
      {"measurement": "Plant response rating, Rice", "setting": "rice (Oryza saliva) [8]; [28]", "value": 0},
      {"measurement": "Plant response rating, Crabgrass", "setting": "[9]; [27]", "value": 60},
      {"measurement": "Plant response rating, Crabgrass", "setting": "[9]; [28]", "value": 0},
      {"measurement": "Plant response rating, Pigweed", "setting": "[10]; [27]", "value": 0},
      {"measurement": "Plant response rating, Pigweed", "setting": "[10]; [28]", "value": 0},
      {"measurement": "Plant response rating, Barnyardgrass", "setting": "[11]; [27]", "value": 0},
      {"measurement": "Plant response rating, Barnyardgrass", "setting": "[11]; [28]", "value": 0},
      {"measurement": "Ducksalad plant response rating", "setting": "[12]; Rate 250 g/ha", "value": 0},
      {"measurement": "Ducksalad plant response rating", "setting": "[12]; Rate 500 g/ha", "value": 90},
      {"measurement": "Plant response rating, Ducksalad", "setting": "[12]; Rate 62 g/ha", "value": 0},
      {"measurement": "Plant response rating, Ducksalad", "setting": "[12]; Rate 125 g/ha", "value": 0},
      {"measurement": "Flatsedge plant response rating", "setting": "[13]; Rate 250 g/ha", "value": 100},
      {"measurement": "Flatsedge plant response rating", "setting": "[13]; Rate 500 g/ha", "value": 100},
      {"measurement": "Plant response rating, Flatsedge", "setting": "[13]; Rate 62 g/ha", "value": 0},
      {"measurement": "Plant response rating, Flatsedge", "setting": "[13]; Rate 125 g/ha", "value": 80},
      {"measurement": "Rice plant response rating", "setting": "rice (Oryza saliva) [14]; Rate 250 g/ha", "value": 20},
      {"measurement": "Rice plant response rating", "setting": "rice (Oryza saliva) [14]; Rate 500 g/ha", "value": 20},
      {"measurement": "Plant response rating, Rice", "setting": "rice (Oryza saliva) [14]; flooded paddy test, Rate 62 g/ha, scale 0 to 100 (0 no effect, 100 complete control)", "value": 0},
      {"measurement": "Barnyardgrass plant response rating", "setting": "[15]; Rate 250 g/ha", "value": 20},
      {"measurement": "Barnyardgrass plant response rating", "setting": "[15]; Rate 500 g/ha", "value": 40},
      {"measurement": "Plant response rating, Barnyardgrass", "setting": "[15]; Rate 62 g/ha", "value": 0},
      {"measurement": "Plant response rating, Barnyardgrass", "setting": "[15]; Rate 125 g/ha", "value": 0},
      {"measurement": "Plant response rating, Corn", "setting": "corn (Zea mays) [16]; [29]", "value": 0},
      {"measurement": "Plant response rating, Corn", "setting": "corn (Zea mays) [16]; [30]", "value": 0},
      {"measurement": "Plant response rating, Lambsquarters", "setting": "[17]", "value": 50},
      {"measurement": "Plant response rating, Morningglory", "setting": "[18]", "value": 0},
      {"measurement": "Plant response rating, Foxtail, Giant", "setting": "[19]; [29]", "value": 0},
      {"measurement": "Plant response rating, Foxtail, Giant", "setting": "[19]; [30]", "value": 0},
      {"measurement": "Plant response rating, Surinam grass", "setting": "[20]; [29]", "value": 0},
      {"measurement": "Plant response rating, Surinam grass", "setting": "[20]; [30]", "value": 0},
      {"measurement": "Plant response rating, Wheat", "setting": "[21]", "value": 0},
      {"measurement": "Plant response rating, Wild Oat", "setting": "wild oat (Avena fatua)", "value": 0},
      {"measurement": "Plant response rating, Velvetleaf", "setting": "[22]", "value": 0},
      {"measurement": "Plant response rating, Crabgrass", "setting": "[23]; [29]", "value": 0},
      {"measurement": "Plant response rating, Crabgrass", "setting": "[23]; [30]", "value": 0},
      {"measurement": "Plant response rating, Pigweed", "setting": "[24]", "value": 0},
      {"measurement": "Plant response rating, Blackgrass", "setting": "[25]; [29]", "value": 0},
      {"measurement": "Plant response rating, Blackgrass", "setting": "[25]; [30]", "value": 0},
      {"measurement": "Plant response rating, Barnyardgrass", "setting": "[26]; [29]", "value": 0},
      {"measurement": "Plant response rating, Barnyardgrass", "setting": "[26]; [30]", "value": 0}
    ]}
  ]
}
